Reference: patent publication US9464049B2, “Indole-carboxamides” (Hoffmann-La Roche Inc., priority 2013, dated 2016)

Key:
[1] = test system: human embryonic stem cell derived neural stem cells (NSCs); test: Neural stem cell proliferation assay (neurogenesis assay, ATP levels by CellTiterGlo); format: cell-based; settings: Homo sapiens, Neural stem cell, 96 h; compound concentration at which 150% activity of control (100%) is reached; NSC proliferation by ATP (CellTiterGlo) after 4 days incubation; dose response 8 μM to 8 nM
Experimental: Neural Stem Cell Proliferation Assay
Neurogenic properties of small molecules are determined based on the proliferation of human embryonic stem cell derived neural stem cells (NSCs) which were derived via a dual smad inhibition as previously described (Chambers, S. M., et al., Highly efficient neural conversion of human ES and iPS cells by dual inhibition of SMAD signaling, Nature biotechnology, 2009. 27(3): p. 275-80.)
Compounds respond is measured by the increase in cells based on ATP levels (Promega:CellTiterGlo®) after an incubation period of 4 days.
NSCs are thawed and expanded over 3 passages. On the 14th day, NSCs are seeded in Polyornithin/Laminin coated 384 well plates at a cell density of 21,000 cells/cm^2 in a media volume of 38 μl.
4 hours after cell seeding, compound solutions are added at a volume of 2 μl. Stock solutions of the compounds (water, 5% DMSO) are diluted to obtain a dose response (11 points, dilution factor is 2), ranging from 8 μM to 8 nM. Controls are run to consistently determine the neurogenic properties of the cells: • Negative (neutral) control is cell culture Media (final DMSO concentration: 0.25%). • Positive controls are: • 1. cell culture Media+100 ng/ml FGF2 (final DMSO concentration: 0.1%) • 2. cell culture Media+20 ng/ml EGF (final DMSO concentration: 0.1%) • 3. cell culture Media+100 ng/ml Wnt3a (final DMSO concentration: 0.1%)
After 4 days incubation at 37° C., 5% CO2, the amount of ATP per well is quantified. The ATP concentration is proportional to the cell number. ATP is quantified by using the Promega CellTiterGlo® kit. The CellTiterGlo® reagents contain a cell lysis buffer, a thermo stable luciferase (UltraGlo™ recombinant luciferase), magnesium and luciferin. Luciferin reacts with ATP producing oxyluciferin, AMP and light. The luminescence signal is proportional to the ATP content.
The value of negative (neutral) control is determined for each assay plate by taking the average of 16 negative control wells. The neurogenic compound response is calculated for each compound as (compound/Negative Control)*100.
The values of EC150 from the dose response curve are determined for each test compound. The EC150 is the compound concentration at which 150% activity of control (100%) is reached.

Row | SMILES | EC (150% of control) [1] | melting point
1 | COc1ccc(-c2cc(C#N)cc3cc(C(N)=O)n(C)c23)cc1 [Example 71, 5-Cyano-7-(4-methoxyphenyl)-1-methylindole-2-carboxamide] | 0.21 µM | 206.5 °C
2 | COc1ccc(-c2cc(C#N)cc3cc(C(N)=O)[nH]c23)cc1 [Example 72, 5-Cyano-7-(4-methoxyphenyl)-1H-indole-2-carboxamide] | 0.19 µM | 255 °C
3 | Cn1c(C(N)=O)cc2cc(C#N)cc(-c3ccc(OC(F)(F)F)cc3)c21 [Example 73, 5-Cyano-1-methyl-7-[4-(trifluoromethoxy)phenyl]indole-2-carboxamide] | 7.5 µM | 176 °C
4 | Cc1ccc(-c2cc(F)cc3c(C)c(C(N)=O)[nH]c23)cc1 [Example 74, 5-Fluoro-3-methyl-7-(4-methylphenyl)-1H-indole-2-carboxamide] | 0.17 µM | 192 °C
5 | Cc1c(C(N)=O)[nH]c2c(-c3ccc(F)c(F)c3F)cc(F)cc12 [Example 75, 5-Fluoro-3-methyl-7-(2,3,4-trifluorophenyl)-1H-indole-2-carboxamide] | 0.082 µM | 209 °C
6 | COc1ccc(-c2cc(F)cc3c(C)c(C(N)=O)[nH]c23)cc1 [Example 76, 5-Fluoro-7-(4-methoxyphenyl)-3-methyl-1H-indole-2-carboxamide] | 0.009 µM | 217 °C
7 | Cc1c(C(N)=O)[nH]c2c(-c3ccc(Cl)cc3F)cc(F)cc12 [Example 77, 7-(4-Chloro-2-fluorophenyl)-5-fluoro-3-methyl-1H-indole-2-carboxamide] | 0.022 µM | 216 °C
8 | Cc1c(C(N)=O)[nH]c2c(-c3ccncc3)cc(F)cc12 [Example 78, 5-Fluoro-3-methyl-7-pyridin-4-yl-1H-indole-2-carboxamide] | 0.053 µM | 270 °C
